Measured values as given in ChEMBL document CHEMBL1201862, “PubChem BioAssay data set” (2004).
Activity calls are given as the source filed them.

How the values were obtained:
[1] = HEp-2 cell cytotoxicity, dose response, cytotoxicity control for RSV inhibitor project, HTS (AID 2410); type: functional; settings: human respiratory syncytial virus
[2] = inhibitors of firefly luciferase expression or activity, dose response, H4 neuroglioma cells, luminescence (AID 1990); type: functional, cell-based
[3] = Luminescence Cell-Based Dose Response HTS to Identify Inhibitors of 5'UTR Stem-Loop Driven Prion Protein mRNA Translation in H4 Neuroglioblastoma Cells. [Related pubchem assays: 1827 (Project Summary), 1813 (Primary HTS)]; type: functional
[4] = inhibitors of SNCA 5'UTR-driven reporter translation, confirmation, H4 neuroglioma cells, luminescence (AID 1988); type: functional, cell-based
[5] = target: T1, Ubiquitin-conjugating enzyme E2 N (Homo sapiens, UniProt P61088); type: functional;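 further: Dose-response confirmation in a TR-FRET assay detecting UBC13-driven polyubiquitin chain formation, inhibition measured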
T1 sequence (P61088 whole entry): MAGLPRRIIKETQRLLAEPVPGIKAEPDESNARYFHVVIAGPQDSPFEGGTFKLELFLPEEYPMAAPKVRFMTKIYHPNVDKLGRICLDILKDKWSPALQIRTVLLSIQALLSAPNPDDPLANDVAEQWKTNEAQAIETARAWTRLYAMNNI

[6] = Shn3 3'UTR reporter inhibitors, dose response, cell-based, Clone20 osteoblasts, firefly luciferase, cherry-picked (AID 624132); type: functional;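 further: firefly luciferase luminescence from reporter carrying the Shn3 3'UTR in osteoblasts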
[7] = HepG2 cell cytotoxicity, dose response, cytotoxicity control for Shn3 inhibitor project, CellTiter-Glo, cherry-picked (AID 624134); type: functional, cell-based
[8] = control 3'UTR Renilla luciferase suppression, dose response, counter-screen for Shn3 inhibitor project, cell-based, Clone20-Shn3RL, cherry-picked (AID 624133); type: functional
A549 = assay: A549 cell toxicity, dose response, cytotoxicity control, plate reader, cherry-pick samples (AID 687028); type: functional, cell-based; settings: Homo sapiens
[9] = target: Fructose-bisphosphate aldolase (Mycobacterium tuberculosis, UniProt P9WQA3); assay: Fluorescence-based biochemical high throughput dose response assay for inhibitors of the fructose-bisphosphate aldolase (FBA) of M. tuberculosis.; type: functional
Chain of Fructose-bisphosphate aldolase (P9WQA3 whole entry): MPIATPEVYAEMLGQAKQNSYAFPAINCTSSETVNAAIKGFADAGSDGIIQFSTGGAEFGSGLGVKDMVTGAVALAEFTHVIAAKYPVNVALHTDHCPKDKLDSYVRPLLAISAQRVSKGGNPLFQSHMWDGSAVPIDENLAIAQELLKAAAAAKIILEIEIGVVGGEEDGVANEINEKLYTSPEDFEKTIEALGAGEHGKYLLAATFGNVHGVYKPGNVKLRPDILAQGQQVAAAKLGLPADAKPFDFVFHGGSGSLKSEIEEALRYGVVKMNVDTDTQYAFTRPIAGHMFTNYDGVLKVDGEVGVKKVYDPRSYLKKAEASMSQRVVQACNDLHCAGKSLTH

[10] = target: Potassium channel subfamily K member 9 (Homo sapiens, UniProt Q9NPC2); assay: TASK3 (KCNK9) channel inhibitors, thallium flux, SAR follow-up, selectivity assay for TASK1 inhibitor project, cell-based, FluxOR thallium flux, concentration-response (AID 652211); type: functional;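 further: potency is for inhibitors of the channel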
Chain of Potassium channel subfamily K member 9 (Q9NPC2 whole entry): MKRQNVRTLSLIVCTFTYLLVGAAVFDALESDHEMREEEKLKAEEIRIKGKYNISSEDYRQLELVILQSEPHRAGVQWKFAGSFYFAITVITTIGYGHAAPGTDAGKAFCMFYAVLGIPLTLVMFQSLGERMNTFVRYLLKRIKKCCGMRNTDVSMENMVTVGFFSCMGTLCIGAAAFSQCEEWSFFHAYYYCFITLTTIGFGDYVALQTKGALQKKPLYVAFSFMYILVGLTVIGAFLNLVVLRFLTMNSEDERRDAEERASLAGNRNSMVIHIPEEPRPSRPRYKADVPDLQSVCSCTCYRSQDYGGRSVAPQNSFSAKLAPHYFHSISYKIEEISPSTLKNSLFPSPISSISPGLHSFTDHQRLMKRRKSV

[11] = target: Potassium channel subfamily K member 3 (Homo sapiens, UniProt O14649); assay: TASK1 (KCNK3) potassium channel inhibitors, SAR follow-up, CHO cells, FluxOR thallium flux (AID 652212); type: functional
Chain of Potassium channel subfamily K member 3 (O14649 whole entry): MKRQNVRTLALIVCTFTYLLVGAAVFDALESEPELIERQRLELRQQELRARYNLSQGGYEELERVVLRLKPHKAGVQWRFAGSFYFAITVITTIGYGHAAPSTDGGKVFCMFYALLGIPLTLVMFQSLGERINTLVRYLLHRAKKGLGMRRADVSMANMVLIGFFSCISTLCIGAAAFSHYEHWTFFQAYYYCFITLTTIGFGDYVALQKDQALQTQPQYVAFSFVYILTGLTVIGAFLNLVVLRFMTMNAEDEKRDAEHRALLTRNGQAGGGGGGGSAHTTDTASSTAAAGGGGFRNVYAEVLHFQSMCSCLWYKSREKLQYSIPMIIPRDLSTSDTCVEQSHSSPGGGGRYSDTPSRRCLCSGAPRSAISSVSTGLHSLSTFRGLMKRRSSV

Paired box protein Pax-8 = Paired box protein Pax-8 (Homo sapiens, UniProt Q06710); assay: inhibitors of PAX8-driven TPO luciferase reporter, dose response, RMG-I cells, cherry-pick (AID 687027); type: functional, cell-based;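 further: luciferase reporter driven by Pax8 target thyroperoxidase promoter measured by SteadyGlo luminescence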
Chain of Paired box protein Pax-8 (Q06710 whole entry): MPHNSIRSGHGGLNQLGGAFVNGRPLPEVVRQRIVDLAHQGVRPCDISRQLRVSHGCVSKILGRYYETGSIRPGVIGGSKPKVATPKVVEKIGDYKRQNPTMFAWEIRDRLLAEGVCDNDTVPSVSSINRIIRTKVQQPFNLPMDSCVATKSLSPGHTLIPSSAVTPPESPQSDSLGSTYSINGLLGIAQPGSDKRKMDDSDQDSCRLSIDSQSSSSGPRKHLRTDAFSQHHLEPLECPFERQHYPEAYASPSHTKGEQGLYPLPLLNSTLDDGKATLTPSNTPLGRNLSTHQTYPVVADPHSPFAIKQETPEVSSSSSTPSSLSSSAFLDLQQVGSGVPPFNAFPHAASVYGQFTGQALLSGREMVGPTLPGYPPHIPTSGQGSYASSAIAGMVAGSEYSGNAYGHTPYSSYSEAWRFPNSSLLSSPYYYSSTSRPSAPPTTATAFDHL

[12] = IOSE-T80 ovarian epithelial cell cytotoxicity, dose response, cytotoxicity control for PAX8 inhibitor project, plate reader, dry powder samples (AID 743045); type: functional, cell-based
[13] = A2780 ovarian cancer cell cytotoxicity, dose response, cytotoxicity control, plate reader, dry powder samples (AID 743046); type: functional, cell-based
[14] = NIH:OVCAR-3 ovarian cancer cell cytotoxicity, dose response, PAX8 inhibitor project, plate reader, dry powder samples (AID 743044); type: functional, cell-based
[15] = IGROV1 ovarian cancer cell cytotoxicity, dose response, PAX8 inhibitor project, plate reader, dry powder samples (AID 743043); type: functional, cell-based; settings: IGROV-1
[16] = non-specific cell cytotoxicity, dose response, cytotoxicity control for PAX8 inhibitor project, plate reader, dry powder samples (AID 743021); type: functional, cell-based
[17] = cytotoxicity in OVCAR8 ovarian cancer cells, dose response, PAX8 project, cell-based, plate reader, dry powder samples (AID 743197); type: functional; settings: OVCAR-8
[18] = target: T2, Small ubiquitin-related modifier 1 (Homo sapiens, UniProt P63165); assay: inhibitors of SUMO1 peptide binding, dose response, biochemical, fluorescence polarization, uHTS hits (AID 624382); type: functional; settings: read-out: IC50_Mean
T2 sequence (P63165 whole entry): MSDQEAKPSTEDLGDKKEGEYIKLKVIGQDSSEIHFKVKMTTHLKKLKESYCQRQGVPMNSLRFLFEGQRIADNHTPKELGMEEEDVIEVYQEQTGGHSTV

[19] = target: T2, Small ubiquitin-related modifier 1; assay: inhibitors of SUMO1 partner interactions, dose response, biochemical, FRET (AID 624383); type: functional; settings: read-out: IC50_Mean
[20] = target: 1-phosphatidylinositol 4,5-bisphosphate phosphodiesterase gamma-1 (Homo sapiens, UniProt P19174); assay: Counterscreen for inhibitors of phospholipase C isozymes (PLC-B3): Fluorescence-based biochemical high throughput dose response assay to identify inhibitors of phospholipase C isozymes (PLC-gamma1).
Chain of 1-phosphatidylinositol 4,5-bisphosphate phosphodiesterase gamma-1 (P19174 whole entry): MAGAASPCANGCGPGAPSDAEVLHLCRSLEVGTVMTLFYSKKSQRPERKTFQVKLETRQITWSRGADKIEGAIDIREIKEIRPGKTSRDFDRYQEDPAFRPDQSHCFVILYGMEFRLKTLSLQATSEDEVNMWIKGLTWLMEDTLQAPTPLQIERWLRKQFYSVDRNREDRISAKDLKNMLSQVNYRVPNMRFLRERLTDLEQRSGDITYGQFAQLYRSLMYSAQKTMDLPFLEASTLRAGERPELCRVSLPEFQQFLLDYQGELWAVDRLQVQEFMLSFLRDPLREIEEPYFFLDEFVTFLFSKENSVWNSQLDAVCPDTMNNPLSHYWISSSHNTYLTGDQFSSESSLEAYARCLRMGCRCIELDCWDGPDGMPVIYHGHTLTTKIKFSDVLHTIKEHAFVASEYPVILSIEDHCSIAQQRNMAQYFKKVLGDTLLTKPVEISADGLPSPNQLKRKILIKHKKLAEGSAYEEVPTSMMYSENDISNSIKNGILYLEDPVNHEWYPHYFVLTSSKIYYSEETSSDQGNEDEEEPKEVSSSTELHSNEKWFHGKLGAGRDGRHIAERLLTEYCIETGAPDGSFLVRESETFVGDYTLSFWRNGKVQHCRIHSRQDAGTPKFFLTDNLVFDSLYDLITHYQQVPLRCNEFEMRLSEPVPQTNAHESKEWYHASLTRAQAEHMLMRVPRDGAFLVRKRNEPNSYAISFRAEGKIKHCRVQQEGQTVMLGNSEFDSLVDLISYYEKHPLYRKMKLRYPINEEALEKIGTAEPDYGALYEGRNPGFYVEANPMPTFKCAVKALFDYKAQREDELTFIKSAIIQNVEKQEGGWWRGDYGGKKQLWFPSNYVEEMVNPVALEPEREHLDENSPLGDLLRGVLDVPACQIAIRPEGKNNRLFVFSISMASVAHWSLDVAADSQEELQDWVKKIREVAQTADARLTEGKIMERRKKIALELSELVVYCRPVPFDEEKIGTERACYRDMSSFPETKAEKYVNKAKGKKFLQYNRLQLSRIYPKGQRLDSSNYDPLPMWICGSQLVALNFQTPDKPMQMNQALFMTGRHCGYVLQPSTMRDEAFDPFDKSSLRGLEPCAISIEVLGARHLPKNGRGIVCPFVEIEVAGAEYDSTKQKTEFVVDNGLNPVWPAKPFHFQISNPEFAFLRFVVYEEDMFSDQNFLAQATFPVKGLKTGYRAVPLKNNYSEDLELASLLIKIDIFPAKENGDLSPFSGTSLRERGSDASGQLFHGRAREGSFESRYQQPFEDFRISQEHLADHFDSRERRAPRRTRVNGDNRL

[21] = target: 1-phosphatidylinositol 4,5-bisphosphate phosphodiesterase beta-3 (Homo sapiens, UniProt Q01970); assay: Fluorescence-based biochemical high throughput dose response assay to identify inhibitors of phospholipase C isozymes (PLC-B3).
Chain of 1-phosphatidylinositol 4,5-bisphosphate phosphodiesterase beta-3 (Q01970 whole entry): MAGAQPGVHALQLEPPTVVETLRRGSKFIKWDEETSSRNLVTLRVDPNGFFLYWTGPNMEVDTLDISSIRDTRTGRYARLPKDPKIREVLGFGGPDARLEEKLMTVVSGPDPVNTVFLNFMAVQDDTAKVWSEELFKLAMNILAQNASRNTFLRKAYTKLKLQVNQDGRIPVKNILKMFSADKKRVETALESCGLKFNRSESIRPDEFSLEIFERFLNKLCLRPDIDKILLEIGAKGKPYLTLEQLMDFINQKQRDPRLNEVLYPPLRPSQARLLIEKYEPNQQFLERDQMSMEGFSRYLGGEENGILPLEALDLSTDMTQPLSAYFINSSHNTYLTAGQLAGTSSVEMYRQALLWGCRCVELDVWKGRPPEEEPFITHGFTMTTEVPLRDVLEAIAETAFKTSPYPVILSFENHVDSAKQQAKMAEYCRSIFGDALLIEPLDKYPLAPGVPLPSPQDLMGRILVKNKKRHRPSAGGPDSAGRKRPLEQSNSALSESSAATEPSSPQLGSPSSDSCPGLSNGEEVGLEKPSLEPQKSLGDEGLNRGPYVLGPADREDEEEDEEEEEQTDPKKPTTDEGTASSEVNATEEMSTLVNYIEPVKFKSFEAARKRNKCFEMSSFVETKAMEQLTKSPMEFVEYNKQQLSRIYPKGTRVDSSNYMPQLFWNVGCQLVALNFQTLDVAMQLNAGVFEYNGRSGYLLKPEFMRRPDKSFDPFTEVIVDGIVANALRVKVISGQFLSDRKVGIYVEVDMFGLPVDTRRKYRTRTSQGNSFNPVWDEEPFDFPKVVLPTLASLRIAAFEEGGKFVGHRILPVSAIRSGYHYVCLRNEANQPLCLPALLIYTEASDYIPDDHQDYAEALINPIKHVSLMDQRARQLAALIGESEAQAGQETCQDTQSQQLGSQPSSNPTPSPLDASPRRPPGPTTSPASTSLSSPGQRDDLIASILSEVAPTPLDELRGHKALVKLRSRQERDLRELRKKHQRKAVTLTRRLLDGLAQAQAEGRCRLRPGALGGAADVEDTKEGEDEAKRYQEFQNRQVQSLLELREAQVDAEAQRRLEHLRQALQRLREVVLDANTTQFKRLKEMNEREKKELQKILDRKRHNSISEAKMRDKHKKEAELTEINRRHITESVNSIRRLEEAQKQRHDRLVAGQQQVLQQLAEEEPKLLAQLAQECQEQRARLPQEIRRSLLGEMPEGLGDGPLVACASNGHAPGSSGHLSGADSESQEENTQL

[22] = target: Matrix metalloproteinase-14 (Homo sapiens, UniProt P50281); assay: Dose Response confirmation of uHTS hits for a small molecule inhibitors of MT1-MMP activation in a fluorescence assay set 2.; type: functional
[23] = target: T3, Oxysterols receptor LXR-beta (Homo sapiens, UniProt P55055); type: functional, cell-based;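 further: agonist activity at LXR measured by a cell-based luminescence readout across a dose range, run as a counterscreen for daf-12 agonists; HEK293 cells with Gal4-LXR fusion and GAL4-driven luciferase reporter; potency for activation of Gal4-LXR reporter so compounds are agonists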
T3 sequence (P55055 whole entry): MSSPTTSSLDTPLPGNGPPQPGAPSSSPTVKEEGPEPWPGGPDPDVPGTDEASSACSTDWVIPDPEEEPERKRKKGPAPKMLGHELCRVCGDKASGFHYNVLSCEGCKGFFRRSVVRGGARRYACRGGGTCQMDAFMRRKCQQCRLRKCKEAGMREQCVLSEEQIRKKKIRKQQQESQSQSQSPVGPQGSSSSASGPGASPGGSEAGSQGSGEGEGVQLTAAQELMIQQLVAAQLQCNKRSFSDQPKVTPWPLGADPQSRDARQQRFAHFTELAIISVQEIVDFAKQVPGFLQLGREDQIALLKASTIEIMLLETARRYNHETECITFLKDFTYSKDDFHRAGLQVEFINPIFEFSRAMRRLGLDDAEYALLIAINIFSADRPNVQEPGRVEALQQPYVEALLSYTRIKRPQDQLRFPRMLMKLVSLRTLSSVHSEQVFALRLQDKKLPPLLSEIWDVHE

[24] = P. falciparum 3D7-ScDHODH growth inhibitors, dose response, SYBR Green, dry powder samples (AID 1159570); type: functional, cell-based;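 further: parasite growth measured after 72 hours of compound exposure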
[25] = HepG2 cell cytotoxicity, dose response, cytotoxicity control, plate reader, dry powder samples (AID 1159569); type: functional, cell-based;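 further: inhibitor potency with signal falling toward the positive control level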
[26] = P. falciparum Dd2 growth inhibitors, dose response, SYBR Green, cherry-picked samples (AID 1159567); type: functional, cell-based
[27] = P. falciparum Dd2 growth inhibitors, dose response, SYBR Green, dry powder samples (AID 1159566); type: functional, cell-based;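 further: potency for growth inhibition with lower SYBR green DNA signal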
[28] = HepG2 cell cytotoxicity, dose response, cytotoxicity control, cherry-picked samples (AID 1159577); type: functional, cell-based
[29] = P. falciparum ATP4 D1247Y mutant growth inhibitors, dose response, NITD609-resistant line, SYBR Green, dry powder (AID 1159571); type: functional, cell-based;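 further: parasites synchronized at ring stage by sorbitol before testing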

SMILES: CCc1ccc(O)c(CNCCNCc2cc(CC)ccc2O)c1
- CC50 [1]: 9.08 µM (active)
- EC50 [2]: 11 µM (active)
- EC50 [3]: 12 µM (active)
- EC50 [4]: 9.33 µM (active)
- IC50 [5]: > 20 µM (inactive)
- AC50 [6]: 1.38 µM (active)
- AC50 [7]: 15.6 µM (active)
- AC50 [8]: 8.22 µM (active)
- AC50 (A549): 19.8 µM (active)

SMILES: CCOc1c2ccc(C(=O)NC3CCCc4ccccc43)cc2nn1CC (configuration not stated)
- IC50 [9]: 1.64 µM (active)

SMILES: Cc1cccc(C(=O)Nc2cccc(NC(=O)c3cccc(C(F)(F)F)c3)c2)c1
- IC50 [10]: 3.06 µM (active)
- IC50 [11]: 0.009 µM (active)

SMILES: CS(=O)(=O)Nc1ccc2c(c1)[C@@H]1C[C@@H](CC(=O)NCc3ccc(-c4ccccc4)cc3)O[C@@H](CO)[C@@H]1O2
- AC50 (Paired box protein Pax-8): 3.2 µM (active)
- AC50 [12]: 11.7 µM (active)
- AC50 [13]: 17.7 µM (active)
- AC50 [14]: 9.08 µM (active)
- AC50 [15]: 17.6 µM (active)
- AC50 [16]: 65.6 µM (active)
- AC50 [17]: 16.5 µM (active)

SMILES: O=C1NC[C@@H](Cc2ccc(O)cc2)N(CCc2cc(C(F)(F)F)cc(C(F)(F)F)c2)C1=O
- IC50 [18]: > 66.6 µM (inactive)
- IC50 [19]: 9.75 µM (active)
- IC50 [20]: 82.2 µM (inactive)
- IC50 [21]: > 122 µM (inactive)

SMILES: Cc1cc(-c2ccc(Cl)cc2)n2nc(N)nc2n1
- IC50 [9]: 1.4 µM (active)

SMILES: COc1ccc(OCC(=O)NNc2c3ccccc3nc3ccccc23)cc1
- IC50 [22]: > 80 µM (inactive)

SMILES: OCCN1CCN(c2cnc(-c3ccsc3)cn2)CC1
- EC50 [23]: > 67.5 µM (inactive)

SMILES: COc1ccc2c3c(n(C)c2c1)[C@H](CO)N(Cc1ccc(Cl)cc1)CC31CCN(CC2CC2)CC1
- AC50 [24]: 2.85 µM (active)
- AC50 [25]: 19.8 µM (active)
- AC50 [26]: 2.33 µM (active)
- AC50 [27]: 2.23 µM (active)
- AC50 [28]: > 39 µM (inactive)
- AC50 [29]: 2.65 µM (active)
